ChEMBL document CHEMBL4706474, “Tetrahydro-2-naphthyl and 2-Indanyl Triazolopyrimidines Targeting Plasmodium falciparum Dihydroorotate Dehydrogenase Display Potent and Selective Antimalarial Activity” (J Med Chem, 2016)
≈ marks a conversion by molar mass, not a printed value. Calls of active or inactive are those of the source. The rule behind the calls is not given here.

Experiments:
[1] = Solubility of compound in FaSSIF at pH 6.5 measured after 5 to 6 hrs by HPLC-UV based analysis
[2] = Kinetic solubility of compound in phosphate buffer at pH 6.5 measured after 30 mins by HPLC-UV based analysis; type: physicochemical; details: phosphate buffer, pH 6.5, read-out: Kinetic_solubility
[3] = system: Plasmodium falciparum; assay: Antimalarial activity against Plasmodium falciparum D6; type: functional, organism-based
[4] = biological target: Cytochrome P450 3A4 (Homo sapiens, UniProt P08684); assay: Inhibition of CYP3A4 in human liver microsomes using isoform-specific probe substrates in presence of NADPH-generating system by LC-MS analysis; type: ADME; details: read-out: IC50
Sequence of Cytochrome P450 3A4 (P08684 whole entry, canonical isoform): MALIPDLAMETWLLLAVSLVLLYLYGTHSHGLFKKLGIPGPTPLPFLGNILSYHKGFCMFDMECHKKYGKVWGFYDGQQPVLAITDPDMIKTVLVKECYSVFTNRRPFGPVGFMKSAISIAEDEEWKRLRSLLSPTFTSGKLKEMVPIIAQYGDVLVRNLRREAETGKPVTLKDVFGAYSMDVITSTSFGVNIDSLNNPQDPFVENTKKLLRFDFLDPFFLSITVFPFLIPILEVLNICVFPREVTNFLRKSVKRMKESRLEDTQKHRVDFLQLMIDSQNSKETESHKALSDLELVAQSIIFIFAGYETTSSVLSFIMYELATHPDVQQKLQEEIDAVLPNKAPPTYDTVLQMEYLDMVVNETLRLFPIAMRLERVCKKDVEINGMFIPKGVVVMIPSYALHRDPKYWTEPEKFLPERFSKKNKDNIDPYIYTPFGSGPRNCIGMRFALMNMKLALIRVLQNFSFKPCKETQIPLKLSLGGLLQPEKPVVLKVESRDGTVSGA

[5] = Unbound AUC (0 to infinity) in Swiss mouse at 20 mg/kg, po administered as single dose via gavage measured over 24 hrs by LC-MS analysis; type: ADME, organism-based; details: in vivo
[6] = biological target: Dihydroorotate dehydrogenase (quinone), mitochondrial (Rattus norvegicus, UniProt Q63707); assay: Inhibition of N-terminal His6-tagged rat DHODH expressed in Escherichia coli BL21 expressed in Escherichia coli BL21 using L-DHO as substrate and CoQ as co-substrate by DCIP dye based spectrophotometric assay
Sequence of Dihydroorotate dehydrogenase (quinone), mitochondrial (Rattus norvegicus, UniProt Q63707) (Q63707 whole entry): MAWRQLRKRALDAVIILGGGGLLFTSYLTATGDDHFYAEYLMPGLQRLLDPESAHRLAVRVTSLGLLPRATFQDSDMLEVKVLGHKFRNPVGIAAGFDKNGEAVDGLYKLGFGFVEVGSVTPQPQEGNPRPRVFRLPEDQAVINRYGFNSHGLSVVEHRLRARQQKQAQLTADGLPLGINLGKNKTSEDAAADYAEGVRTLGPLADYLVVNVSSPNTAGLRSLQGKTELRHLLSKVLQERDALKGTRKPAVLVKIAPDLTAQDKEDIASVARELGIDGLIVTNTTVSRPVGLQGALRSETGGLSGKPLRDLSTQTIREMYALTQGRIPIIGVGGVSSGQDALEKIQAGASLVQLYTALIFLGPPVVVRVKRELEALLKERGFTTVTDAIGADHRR

[7] = Inhibition of N-terminal His6-tagged Plasmodium falciparum DHODH expressed in Escherichia coli BL21 using L-DHO as substrate and CoQ as co-substrate by DCIP dye based spectrophotometric assay
[8] = system: Plasmodium falciparum; assay: Antiplasmodial activity against Plasmodium falciparum 3D7 infected in RBC assessed as reduction in parasitemia incubated for 72 hrs by SYBR green dye-based assay; type: functional, organism-based; details: Plasmodium falciparum, 3D7, Erythrocyte, 72 h
[9] = biological target: Cytochrome P450 2C19 (Homo sapiens, UniProt P33261); assay: Inhibition of CYP2C19 in human liver microsomes using isoform-specific probe substrates in presence of NADPH-generating system by LC-MS analysis; type: ADME; details: read-out: IC50
Sequence of Cytochrome P450 2C19 (P33261 whole entry, canonical isoform): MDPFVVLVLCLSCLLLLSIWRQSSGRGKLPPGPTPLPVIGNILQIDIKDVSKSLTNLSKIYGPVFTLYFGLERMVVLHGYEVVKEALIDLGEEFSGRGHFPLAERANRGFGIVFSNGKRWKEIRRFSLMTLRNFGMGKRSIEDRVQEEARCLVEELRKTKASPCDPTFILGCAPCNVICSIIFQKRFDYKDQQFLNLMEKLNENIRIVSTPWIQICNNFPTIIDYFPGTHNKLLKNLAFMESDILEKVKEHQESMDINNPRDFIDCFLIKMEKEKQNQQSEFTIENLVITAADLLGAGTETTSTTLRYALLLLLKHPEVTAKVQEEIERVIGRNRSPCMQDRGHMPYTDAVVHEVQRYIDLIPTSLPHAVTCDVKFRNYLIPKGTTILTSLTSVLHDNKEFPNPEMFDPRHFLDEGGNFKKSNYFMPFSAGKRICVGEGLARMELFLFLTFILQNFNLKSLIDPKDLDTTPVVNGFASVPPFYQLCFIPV

[10] = system: Plasmodium falciparum; assay: Antimalarial activity against chloroquine, quinine, mefloquine, pyrimethamine, cycloguanil and sulfadoxine resistant Plasmodium falciparum Dd2; type: functional, organism-based
[11] = AUC (0 to infinity) in Swiss mouse at 20 mg/kg, po administered as single dose via gavage measured over 24 hrs by LC-MS analysis; type: ADME, organism-based; design: route oral, dose 20 mg/kg, time >24; details: in vivo
[12] = Intrinsic clearance in mouse liver microsomes at 1 uM by LC-MS analysis; type: ADME, Microsome
[13] = system: Plasmodium falciparum; assay: Antimalarial activity against atovaquone, chloroquine, cycloguanil and pyrimethamine resistant Plasmodium falciparum TM90C2B; type: functional, organism-based
[14] = Unbound Cmax in Swiss mouse at 20 mg/kg, po administered as single dose via gavage measured over 24 hrs by LC-MS analysis; type: ADME, organism-based; details: in vivo
[15] = biological target: T1, Cytochrome P450 1A2 (Homo sapiens, UniProt P05177); assay: Inhibition of CYP1A2 in human liver microsomes using isoform-specific probe substrate in presence of NADPH-generating system by LC-MS analysis; type: ADME
T1 sequence (P05177 whole entry): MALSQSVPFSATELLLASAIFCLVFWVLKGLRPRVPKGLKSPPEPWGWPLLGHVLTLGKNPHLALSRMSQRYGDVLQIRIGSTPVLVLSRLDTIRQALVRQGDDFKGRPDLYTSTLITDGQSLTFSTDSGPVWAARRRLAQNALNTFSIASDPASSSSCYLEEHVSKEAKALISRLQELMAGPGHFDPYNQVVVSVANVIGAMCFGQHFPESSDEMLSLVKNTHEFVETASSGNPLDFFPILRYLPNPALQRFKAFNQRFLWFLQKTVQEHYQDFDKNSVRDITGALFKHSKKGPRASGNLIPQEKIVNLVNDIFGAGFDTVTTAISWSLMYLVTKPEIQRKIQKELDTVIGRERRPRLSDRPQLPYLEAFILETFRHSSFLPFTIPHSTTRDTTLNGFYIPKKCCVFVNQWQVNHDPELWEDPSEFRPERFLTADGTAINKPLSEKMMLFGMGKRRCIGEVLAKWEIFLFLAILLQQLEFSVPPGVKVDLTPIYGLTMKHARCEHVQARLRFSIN

[16] = Protein binding in rat plasma assessed as bound fraction by LC-MS analysis based ultracentrifugation assay; type: ADME, cell-free; details: read-out: PPB (converted)
[17] = Elimination half-life in Swiss mouse at 20 mg/kg, po administered as single dose via gavage measured over 24 hrs by LC-MS analysis; type: ADME, organism-based; details: in vivo, read-out: beta t1/2 (converted)
[18] = Intrinsic clearance in rat liver microsomes assessed per mg protein at 1 uM by LC-MS analysis; type: ADME, Microsome; details: microsomes, 1 µM
[19] = Protein binding in mouse plasma assessed as bound fraction by LC-MS analysis based ultracentrifugation assay; type: ADME, cell-free; details: read-out: PPB (converted)
[20] = biological target: Dihydroorotate dehydrogenase (quinone), mitochondrial (Mus musculus, UniProt O35435)
Sequence of Dihydroorotate dehydrogenase (quinone), mitochondrial (Mus musculus, UniProt O35435) (O35435 whole entry): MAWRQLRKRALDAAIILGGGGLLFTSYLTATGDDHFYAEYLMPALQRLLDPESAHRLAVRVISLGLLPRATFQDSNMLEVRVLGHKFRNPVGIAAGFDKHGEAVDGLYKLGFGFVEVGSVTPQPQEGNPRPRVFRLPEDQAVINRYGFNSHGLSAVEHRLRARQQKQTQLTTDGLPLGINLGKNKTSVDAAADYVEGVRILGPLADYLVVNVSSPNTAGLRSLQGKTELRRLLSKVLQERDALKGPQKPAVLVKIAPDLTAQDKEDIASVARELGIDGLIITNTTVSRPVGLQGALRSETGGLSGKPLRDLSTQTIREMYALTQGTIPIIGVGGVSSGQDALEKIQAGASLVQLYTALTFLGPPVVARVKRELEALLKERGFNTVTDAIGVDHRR

[21] = Solubility of compound in 0.1 N HCl measured after 5 to 6 hrs by HPLC-UV based analysis; type: physicochemical; details: buffer; time 5-6 hrs
[22] = biological target: T2, Cytochrome P450 2B6 (Homo sapiens, UniProt P20813); assay: Inhibition of CYP2B6 in human liver microsomes using isoform-specific probe substrates in presence of NADPH-generating system by LC-MS analysis; type: ADME
T2 sequence (P20813 whole entry): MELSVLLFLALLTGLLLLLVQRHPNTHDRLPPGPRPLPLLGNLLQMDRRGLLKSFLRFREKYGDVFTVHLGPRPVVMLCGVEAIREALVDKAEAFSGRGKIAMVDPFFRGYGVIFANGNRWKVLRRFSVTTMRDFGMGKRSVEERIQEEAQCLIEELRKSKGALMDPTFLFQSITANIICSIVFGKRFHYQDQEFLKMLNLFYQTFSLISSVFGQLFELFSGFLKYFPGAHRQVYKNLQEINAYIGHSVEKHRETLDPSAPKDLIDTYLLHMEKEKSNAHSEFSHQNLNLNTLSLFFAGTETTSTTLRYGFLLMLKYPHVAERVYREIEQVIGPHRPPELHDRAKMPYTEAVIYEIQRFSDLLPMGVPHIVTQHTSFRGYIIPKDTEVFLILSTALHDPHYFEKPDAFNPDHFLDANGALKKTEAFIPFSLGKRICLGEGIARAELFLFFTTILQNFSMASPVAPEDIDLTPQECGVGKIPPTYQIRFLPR

[23] = Protein binding in Swiss mouse plasma at 20 mg/kg, po administered as single dose via gavage measured over 24 hrs by LC-MS analysis; type: ADME, organism-based; details: read-out: PPB (converted)
[24] = Protein binding in human plasma assessed as bound fraction by LC-MS analysis based ultracentrifugation assay; type: ADME, cell-free; details: read-out: PPB (converted)
[25] = system: Plasmodium falciparum; assay: Antimalarial activity against pyrimethamine resistant Plasmodium falciparum HB3; type: functional, organism-based
[26] = biological target: Cytochrome P450 2D6 (Homo sapiens, UniProt P10635); assay: Inhibition of CYP2D6 in human liver microsomes using isoform-specific probe substrates in presence of NADPH-generating system by LC-MS analysis; type: ADME
Sequence of Cytochrome P450 2D6 (P10635 whole entry, canonical isoform): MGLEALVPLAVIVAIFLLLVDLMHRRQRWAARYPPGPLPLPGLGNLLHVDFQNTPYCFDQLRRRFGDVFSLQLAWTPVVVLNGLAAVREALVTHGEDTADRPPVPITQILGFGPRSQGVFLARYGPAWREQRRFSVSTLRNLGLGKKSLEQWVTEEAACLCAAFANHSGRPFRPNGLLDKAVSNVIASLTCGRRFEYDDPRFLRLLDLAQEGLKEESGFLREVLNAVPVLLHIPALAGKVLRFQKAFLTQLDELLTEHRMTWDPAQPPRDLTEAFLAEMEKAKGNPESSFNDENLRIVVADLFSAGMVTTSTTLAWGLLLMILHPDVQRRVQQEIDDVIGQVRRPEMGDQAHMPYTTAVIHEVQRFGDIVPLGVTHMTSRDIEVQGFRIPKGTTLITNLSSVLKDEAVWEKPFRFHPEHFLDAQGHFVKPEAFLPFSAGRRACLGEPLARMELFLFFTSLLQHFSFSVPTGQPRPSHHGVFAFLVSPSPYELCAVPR

[27] = biological target: Dihydroorotate dehydrogenase (quinone), mitochondrial (Homo sapiens, UniProt Q02127); assay: Inhibition of N-terminal His6-tagged human DHODH expressed in Escherichia coli BL21 using L-DHO as substrate and CoQ as co-substrate by DCIP dye based spectrophotometric assay
Sequence of Dihydroorotate dehydrogenase (quinone), mitochondrial (Homo sapiens, UniProt Q02127) (Q02127 whole entry): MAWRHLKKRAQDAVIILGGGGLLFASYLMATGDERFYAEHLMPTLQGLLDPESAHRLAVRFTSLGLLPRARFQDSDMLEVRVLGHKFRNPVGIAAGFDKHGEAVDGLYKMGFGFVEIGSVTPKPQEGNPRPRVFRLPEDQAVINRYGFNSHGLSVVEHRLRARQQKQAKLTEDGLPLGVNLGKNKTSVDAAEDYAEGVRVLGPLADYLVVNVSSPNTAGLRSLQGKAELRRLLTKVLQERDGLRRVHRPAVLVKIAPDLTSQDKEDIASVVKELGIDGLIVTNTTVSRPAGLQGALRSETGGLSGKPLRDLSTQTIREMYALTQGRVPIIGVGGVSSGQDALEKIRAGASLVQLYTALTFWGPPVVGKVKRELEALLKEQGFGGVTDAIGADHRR

[28] = Lipophilicity, logD of the compound at pH 7.4; type: physicochemical; details: buffer

| SMILES | solubility [1] [µg/mL] | solubility kinetic at 0.5 h [2] [µg/mL] | Activity [3] | IC50 [4] [µM] | fAUC [5] [µM·h] | IC50 [6] [µM] | IC50 [7] [µM] | EC50 [8] [µM] | IC50 [9] [µM] | Activity [10] | AUC [11] [µM·h] | intrinsic clearance [12] [µL/min] | Activity [13] | fCmax [14] [µM] | IC50 [15] [µM] | fraction unbound [16] | half-life [17] [h] | Intrinsic clearance in rat liver microsomes (uL/min/mg protein) [18] [µL/min] | fraction unbound [19] | IC50 [20] [µM] | further results |
| --- | --- | --- | --- | --- | --- | --- | --- | --- | --- | --- | --- | --- | --- | --- | --- | --- | --- | --- | --- | --- | --- |
| Cc1cc(N[C@H]2CCc3ccc(Cl)cc3C2)n2nc(C(C)(F)F)nc2n1 | 12 (≈ 31.8 µM) | 3.1 (≈ 8.2 µM) | Active | > 20 | 0.59 | > 100 | 0.0063 | 0.0012 | > 20 | Active | 22.7 | 31 | Active | 0.13 | > 20 | 0.036 | 2 | 38 | 0.026 | > 100 | solubility [21]: 105 µg/mL (≈ 278 µM); IC50 [22]: > 20 µM; fraction unbound at 24 h [23]: 0.026; fraction unbound [24]: 0.033; Activity [25]: Active; IC50 [26]: 2.7 µM; IC50 [27]: > 100 µM; logD [28]: 3.9 |
| Cc1cc(NC2Cc3cc(F)c(F)cc3C2)n2nc(C(C)(F)F)nc2n1 | 15 (≈ 41.1 µM) | 6.3 (≈ 17.2 µM) | Active | > 20 | 7.9 | > 100 | 0.052 | 0.04 | > 20 | Active | 169 | 21 | Active | 1.4 | > 20 | 0.058 | 2 | < 7 | 0.047 | > 100 | solubility [21]: 180 µg/mL (≈ 493 µM); IC50 [22]: > 20 µM; fraction unbound at 24 h [23]: 0.047; fraction unbound [24]: 0.066; Activity [25]: Active; IC50 [26]: 5.9 µM; IC50 [27]: > 100 µM; logD [28]: 3.4 |
